# Reference: ChEMBL document CHEMBL1142250, “Discovery of azetidinone acids as conformationally-constrained dual PPARalpha/gamma agonists” (Bioorg Med Chem Lett, 2008)
# pEC50, pIC50: −log10 of the molar value.
# How the values were obtained:
# [1] = target: Cytochrome P450 2C9 (Homo sapiens, UniProt P11712); assay: Inhibition of CYP2C9; type: ADME
# [2] = system: Mus musculus; assay: Decrease in plasma glucose level in db/db mouse at 10 mg/kg/day, po qd after 14 days; type: functional; set-up: scale not given: the % may be the effect or the level left
# [3] = target: T1, Cytochrome P450 3A4 (Homo sapiens, UniProt P08684); assay: Inhibition of CYP3A4 in presence of 7-benzyloxy-4-trifluoromethyl coumarin substrate; type: ADME
# T1 sequence (P08684 whole entry): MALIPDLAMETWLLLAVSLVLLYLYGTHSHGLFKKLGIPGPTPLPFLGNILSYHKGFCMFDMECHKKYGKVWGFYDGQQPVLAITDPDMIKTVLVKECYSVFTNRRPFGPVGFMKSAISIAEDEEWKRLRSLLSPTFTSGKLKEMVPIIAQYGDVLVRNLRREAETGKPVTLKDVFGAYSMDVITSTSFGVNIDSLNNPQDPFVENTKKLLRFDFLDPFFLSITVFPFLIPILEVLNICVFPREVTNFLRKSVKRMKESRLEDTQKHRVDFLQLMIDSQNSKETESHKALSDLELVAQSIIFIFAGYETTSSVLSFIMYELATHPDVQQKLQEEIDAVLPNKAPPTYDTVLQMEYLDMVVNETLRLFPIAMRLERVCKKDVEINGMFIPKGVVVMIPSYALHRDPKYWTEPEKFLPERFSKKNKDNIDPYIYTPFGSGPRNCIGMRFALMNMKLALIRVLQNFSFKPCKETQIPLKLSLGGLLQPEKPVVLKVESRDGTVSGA
# [4] = target: T2, Peroxisome proliferator-activated receptor gamma (Homo sapiens, UniProt P37231); assay: Inhibition of PPARgamma
# T2 sequence (P37231 whole entry): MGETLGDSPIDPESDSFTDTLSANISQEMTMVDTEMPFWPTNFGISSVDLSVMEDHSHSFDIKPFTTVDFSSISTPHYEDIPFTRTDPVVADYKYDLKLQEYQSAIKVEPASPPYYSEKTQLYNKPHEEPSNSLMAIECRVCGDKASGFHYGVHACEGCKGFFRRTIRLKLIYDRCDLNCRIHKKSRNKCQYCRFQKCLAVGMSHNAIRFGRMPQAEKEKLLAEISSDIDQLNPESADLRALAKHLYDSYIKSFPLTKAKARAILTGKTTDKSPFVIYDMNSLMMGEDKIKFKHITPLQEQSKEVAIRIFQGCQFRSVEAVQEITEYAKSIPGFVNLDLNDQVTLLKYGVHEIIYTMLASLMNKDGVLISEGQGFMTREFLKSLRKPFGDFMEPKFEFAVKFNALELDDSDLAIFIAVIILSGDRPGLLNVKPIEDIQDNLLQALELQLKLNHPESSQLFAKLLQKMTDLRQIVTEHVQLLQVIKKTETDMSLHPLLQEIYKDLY
# [5] = target: T3, Peroxisome proliferator-activated receptor alpha (Homo sapiens, UniProt Q07869); assay: Agonist activity at PPARalpha in HEK293 cells by GAL4 transactivation assay; type: functional, cell-based
# T3 sequence (Q07869 whole entry): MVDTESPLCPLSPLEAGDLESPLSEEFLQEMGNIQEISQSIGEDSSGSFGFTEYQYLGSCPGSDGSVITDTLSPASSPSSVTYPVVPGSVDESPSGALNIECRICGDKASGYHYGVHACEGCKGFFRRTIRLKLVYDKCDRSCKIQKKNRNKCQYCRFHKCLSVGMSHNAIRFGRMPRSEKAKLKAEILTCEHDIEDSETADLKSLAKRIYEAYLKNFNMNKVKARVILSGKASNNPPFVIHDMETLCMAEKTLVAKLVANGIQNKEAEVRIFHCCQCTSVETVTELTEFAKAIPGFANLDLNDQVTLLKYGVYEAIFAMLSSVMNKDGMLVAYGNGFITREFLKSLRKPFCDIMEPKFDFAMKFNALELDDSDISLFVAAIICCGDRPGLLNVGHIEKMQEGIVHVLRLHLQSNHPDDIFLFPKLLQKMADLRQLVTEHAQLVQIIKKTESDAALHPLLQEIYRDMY
# [6] = Drug concentration in db/db mouse plasma at 10 mg/kg/day, po qd after 14 days; type: ADME, organism-based; set-up: route oral
# [7] = system: Liver; assay: Drug concentration in db/db mouse liver at 10 mg/kg/day, po qd after 14 days; type: ADME, organism-based; set-up: route oral; details: in vivo, 336 h
# [8] = target: T1, Cytochrome P450 3A4; assay: Inhibition of CYP3A4 in presence of 7-benzyloxyresorufin substrate; type: ADME
# [9] = system: Mus musculus; assay: Decrease in plasma triglyceride level in db/db mouse at 10 mg/kg/day, po qd after 14 days; type: functional; set-up: scale not given: the % may be the effect or the level left
# [10] = system: Mus musculus; assay: Decrease in plasma triglyceride level in db/db mouse at 10 mg/kg/day, po qd after 3 weeks; type: functional; set-up: scale not given: the % may be the effect or the level left
# [11] = target: T3, Peroxisome proliferator-activated receptor alpha
# [12] = target: T2, Peroxisome proliferator-activated receptor gamma
# Description: Agonist activity at PPARgamma in HEK293 cells by GAL4 transactivation assay
# [13] = target: T4, Peroxisome proliferator-activated receptor alpha (Homo sapiens) (UniProt Q07869); assay: Agonist activity at PPARalpha in HEK293 cells at 1 uM by GAL4 transactivation assay relative to GW-2331; type: functional, cell-based
# T4 sequence (whole entry): T3 sequence (Q07869 whole entry)
# [14] = target: Voltage-gated inwardly rectifying potassium channel KCNH2 (Homo sapiens, UniProt Q12809); assay: Inhibition of human ERG by FLIPR assay
# Sequence of Voltage-gated inwardly rectifying potassium channel KCNH2 (Q12809 whole entry): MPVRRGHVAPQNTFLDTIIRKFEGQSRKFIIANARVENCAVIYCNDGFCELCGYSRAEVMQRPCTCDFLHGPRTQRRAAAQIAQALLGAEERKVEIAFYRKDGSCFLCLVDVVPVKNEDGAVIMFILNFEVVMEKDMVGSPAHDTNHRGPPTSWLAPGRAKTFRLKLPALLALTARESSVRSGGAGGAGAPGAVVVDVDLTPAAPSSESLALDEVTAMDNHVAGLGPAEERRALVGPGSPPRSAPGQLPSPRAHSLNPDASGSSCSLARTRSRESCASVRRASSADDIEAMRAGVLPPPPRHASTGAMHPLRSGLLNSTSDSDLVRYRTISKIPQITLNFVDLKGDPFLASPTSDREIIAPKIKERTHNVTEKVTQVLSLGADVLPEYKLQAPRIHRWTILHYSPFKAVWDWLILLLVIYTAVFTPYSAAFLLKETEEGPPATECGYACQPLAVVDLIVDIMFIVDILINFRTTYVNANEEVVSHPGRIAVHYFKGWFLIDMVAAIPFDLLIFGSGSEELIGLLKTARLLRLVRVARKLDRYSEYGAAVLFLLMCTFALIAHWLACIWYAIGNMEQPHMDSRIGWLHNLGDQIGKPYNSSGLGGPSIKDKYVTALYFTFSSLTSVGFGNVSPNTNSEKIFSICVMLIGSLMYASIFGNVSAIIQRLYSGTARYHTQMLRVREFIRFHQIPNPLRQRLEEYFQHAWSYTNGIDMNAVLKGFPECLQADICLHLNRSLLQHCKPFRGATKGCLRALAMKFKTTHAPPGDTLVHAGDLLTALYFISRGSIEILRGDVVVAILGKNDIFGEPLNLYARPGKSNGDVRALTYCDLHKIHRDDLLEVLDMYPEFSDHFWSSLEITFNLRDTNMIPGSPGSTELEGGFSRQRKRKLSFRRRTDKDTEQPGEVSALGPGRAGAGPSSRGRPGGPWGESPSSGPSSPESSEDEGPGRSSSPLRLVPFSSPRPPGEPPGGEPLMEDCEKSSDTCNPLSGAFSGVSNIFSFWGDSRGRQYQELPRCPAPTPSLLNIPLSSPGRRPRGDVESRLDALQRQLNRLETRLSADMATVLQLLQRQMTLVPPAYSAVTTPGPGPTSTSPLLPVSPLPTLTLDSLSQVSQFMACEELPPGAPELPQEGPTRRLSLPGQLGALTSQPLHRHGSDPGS
# [15] = system: Adipose tissue; assay: Drug concentration in db/db mouse adipose at 10 mg/kg/day, po qd after 14 days; type: ADME, organism-based; set-up: route oral; details: in vivo, 336 h
# [16] = target: Cytochrome P450 2C19 (Homo sapiens, UniProt P33261); assay: Inhibition of CYP2C19; type: ADME
# Sequence of Cytochrome P450 2C19 (P33261 whole entry): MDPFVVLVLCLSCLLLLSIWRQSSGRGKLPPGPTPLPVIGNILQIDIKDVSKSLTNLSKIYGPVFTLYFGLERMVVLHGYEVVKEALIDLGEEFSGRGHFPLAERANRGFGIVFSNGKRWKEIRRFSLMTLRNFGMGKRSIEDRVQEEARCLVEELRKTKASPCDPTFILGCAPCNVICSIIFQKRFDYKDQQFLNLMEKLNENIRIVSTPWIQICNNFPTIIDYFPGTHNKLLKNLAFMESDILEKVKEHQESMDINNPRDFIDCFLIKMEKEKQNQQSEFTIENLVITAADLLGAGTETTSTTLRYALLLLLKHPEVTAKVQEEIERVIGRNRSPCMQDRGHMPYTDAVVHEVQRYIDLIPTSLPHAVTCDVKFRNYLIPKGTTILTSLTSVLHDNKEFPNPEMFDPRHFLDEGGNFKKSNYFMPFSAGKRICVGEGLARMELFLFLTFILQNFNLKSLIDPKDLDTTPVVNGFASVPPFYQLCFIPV
# Sequence of Cytochrome P450 2C9 (P11712 whole entry): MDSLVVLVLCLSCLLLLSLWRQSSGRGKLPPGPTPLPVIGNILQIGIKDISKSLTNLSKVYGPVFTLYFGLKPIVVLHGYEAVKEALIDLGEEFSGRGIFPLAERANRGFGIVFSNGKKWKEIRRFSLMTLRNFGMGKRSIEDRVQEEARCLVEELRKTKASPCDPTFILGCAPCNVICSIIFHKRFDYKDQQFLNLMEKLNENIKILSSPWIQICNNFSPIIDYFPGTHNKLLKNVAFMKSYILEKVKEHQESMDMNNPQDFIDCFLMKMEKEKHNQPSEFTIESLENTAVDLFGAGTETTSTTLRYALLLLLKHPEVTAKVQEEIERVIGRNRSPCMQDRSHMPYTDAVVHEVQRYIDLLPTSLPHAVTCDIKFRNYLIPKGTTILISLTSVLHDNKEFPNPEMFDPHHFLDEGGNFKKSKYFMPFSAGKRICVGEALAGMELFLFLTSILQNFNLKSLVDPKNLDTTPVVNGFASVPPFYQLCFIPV
pIC50 [4],pEC50 [5],pIC50 [11],Intrinsic activity [13] [%],pIC50 [16],Structure (SMILES),pIC50 [1],Activity [2] [%],pIC50 [3],concentration at 336 h [6] [nM],Drug uptake [7] [nmol/g],pIC50 [8],Activity [9] [%],Activity [10] [%],pEC50 [12],pIC50 [14],Drug uptake [15] [nmol/g]
6.74,6.96,5.62,> 90,–,Cc1oc(-c2ccccc2)nc1CCOc1cccc(CC2C(=O)N(c3ccc(F)cc3)C2C(=O)O)c1 (racemic),–,–,–,–,–,–,–,–,7.52,–,–
7.40,6.82,6.14,> 90,–,COc1ccc(N2C(=O)[C@@H](Cc3ccc(OCCc4nc(-c5ccccc5)oc4C)cc3)[C@H]2C(=O)O)cc1,4.85,–,4.48,–,–,4.59,–,–,7.70,4.27,–
6.22,7.35,6.13,> 90,–,CCCCCCCN(CCc1ccc(O[C@@](C)(CC)C(=O)O)cc1)C(=O)Nc1ccc(F)cc1F,–,–,–,–,–,–,–,–,6.61,–,–
6.96,7.40,6.28,> 90,5.08,COc1cccc(-c2nc(CCOc3cccc(C[C@@H]4C(=O)N(c5ccc(C(C)(C)C)cc5)[C@@H]4C(=O)O)c3)c(C)o2)c1,6.19,–,–,–,–,4.72,–,–,7.40,–,–
–,–,–,–,–,COc1ccc(OC(=O)N(CC(=O)O)Cc2ccc(OCCc3nc(-c4ccccc4)oc3C)cc2)cc1 [MURAGLITAZAR],–,-54,–,103000,25,–,-33,–,–,–,3
6.66,8.10,6.34,> 90,–,COc1ccc(-c2nc(CCOc3cccc(C[C@@H]4C(=O)N(c5ccc(C(C)(C)C)cc5)[C@@H]4C(=O)O)c3)c(C)o2)cc1,–,–,–,–,–,4.92,–,–,7.40,–,–
6.17,8.30,6.32,> 90,5.55,Cc1oc(-c2ccc(Cl)cc2)nc1CCOc1cccc(C[C@@H]2C(=O)N(c3ccc(C(C)(C)C)cc3)[C@@H]2C(=O)O)c1,6.39,–,5.33,–,–,–,–,–,7.22,–,–
6.44,6.64,5.85,> 90,–,Cc1oc(-c2ccccc2)nc1CCOc1cccc(CC2C(=O)N(c3ccc(Cl)cc3)C2C(=O)O)c1 (racemic),–,–,–,–,–,–,–,–,6.89,–,–
5.47,< 5.12,< 4.82,–,–,COc1ccc(N2C(=O)[C@H](Cc3ccc(OCCc4nc(-c5ccccc5)oc4C)cc3)[C@@H]2C(=O)O)cc1,–,–,–,–,–,–,–,–,–,–,–
6.60,7.22,6.07,> 90,5.28,Cc1oc(-c2cccc(Cl)c2)nc1CCOc1cccc(C[C@@H]2C(=O)N(c3ccc(C(C)(C)C)cc3)[C@@H]2C(=O)O)c1,6.17,–,–,–,–,4.70,–,–,7.00,–,–

Structure (SMILES),pIC50 [4],pEC50 [5],pIC50 [11],Intrinsic activity [13] [%],pIC50 [16],pIC50 [1],Activity [2] [%],pIC50 [3],concentration at 336 h [6] [nM],Drug uptake [7] [nmol/g],pIC50 [8],Activity [9] [%],Activity [10] [%],pEC50 [12],pIC50 [14],Drug uptake [15] [nmol/g]
Cc1oc(-c2ccccc2)nc1CCOc1cccc(C[C@@H]2C(=O)N(c3ccc(C(C)(C)C)cc3)[C@@H]2C(=O)O)c1,7.40,7.40,7.10,–,–,6.64,-17,4.77,870,7.4,4.72,-52,61,6.92,–,–
COc1ccc(N2C(=O)C(Cc3cccc(OCCc4nc(-c5ccccc5)oc4C)c3)C2C(=O)O)cn1 (racemic),6.64,7.05,5.89,> 90,–,–,–,–,–,–,–,–,–,7.15,–,–
Cc1oc(-c2ccccc2)nc1CCOc1ccc(C[C@H]2C(=O)N(c3ccc(C(C)(C)C)cc3)[C@H]2C(=O)O)cc1,5.37,6.01,< 4.82,–,–,5.52,–,< 4.40,–,–,< 4.40,–,–,6.30,–,–
COc1ccc(N2C(=O)[C@@H](Cc3cccc(OCCc4nc(-c5ccccc5)oc4C)c3)[C@H]2C(=O)O)cc1,7.00,7.15,6.44,> 90,–,5.66,-43,4.30,2800,10.4,6.08,0,–,7.05,–,0.29
Cc1oc(-c2ccccc2)nc1CCOc1ccc(C[C@@H]2C(=O)N(c3ccc(C(C)(C)C)cc3)[C@@H]2C(=O)O)cc1,6.96,8.00,6.10,> 90,–,5.64,–,< 4.40,–,–,4.55,–,–,8.40,–,–
Cc1oc(-c2ccccc2)nc1CCOc1cccc(C[C@H]2C(=O)N(c3ccc(C(C)(C)C)cc3)[C@H]2C(=O)O)c1,6.10,5.27,< 4.82,–,–,6.17,–,4.70,–,–,–,–,–,6.39,–,–
COc1ccc(N2C(=O)C(Cc3cccc(OCCc4nc(-c5ccccc5)oc4C)c3)C2C(=O)O)cc1 (racemic),6.80,6.85,6.16,> 90,–,–,–,–,–,–,–,–,–,6.74,–,–
COc1ccc(N2C(=O)[C@H](Cc3cccc(OCCc4nc(-c5ccccc5)oc4C)c3)[C@@H]2C(=O)O)cc1,5.96,< 5.12,< 4.82,–,–,–,–,–,–,–,–,–,–,6.08,–,–
